In series [1] the test system is ADHD/ADD adult patients. The series can be described thus: Wechsler subtests in ADHD/ADD adult patients (Example 2). The series is classed as in vivo, human. The conditions noted are these: single dose 1400 mg, 90 minutes after dosing. The method, then:
(§1) 38 ADHD/ADD adult patients (age 18-45) of ADHD unit of the Geha Mental Health Center (Israel) were tested.
(§2) A total of four tablets were administered to each patient: • Two tablets of immediate release (IR) formulation (defined in Table 4) and • Two tablets of slow release (SR) formulation (defined in Table 5).
(§3) Tests at inclusion included selection of patients, and included clinical diagnosis by DSM IV, psychiatric examination, WURS & ASRS questionnaires, TOVA (Test of Variables of Attention) score, Wechsler (Wechsler Adult Intelligence Scale) subtests, BDI (Beck Depression Inventory) and STAI (State-Trait Anxiety Inventory) questionnaire.
(§4) The Primary outcome measure was the ADHD Score, TOVA Omission, TOVA Commission, TOVA RT and TOVA Variability analysed as Standard Score in % compared to the patient's prior performance of the TOVA test at baseline. Secondary outcome measures were Subtests from Weschler: Digit span, Symbol Search, Digit symbol.

The subject of series [2] is animals with alcohol intake. As to conditions: animal studies, cited from earlier work.
The nature of series [3]: Pharmacokinetics after single administration to fasted healthy subjects (Example 1). The series is classed as in vivo, human. An excerpt: The above mentioned formulations were given to fasted healthy patients. Blood samples were collected following a predetermined time schedule in order to characterize formulation adsorption and elimination.
In series [4] the test system is frontoparietal cortex of guinea pigs. The conditions noted are these: cited from earlier work.
Series [5] relates to humans. The conditions noted are these: long term data; cited from earlier work.
For series [6] the following is noted: cited from earlier work.
Series [7] relates to abstinent chronic alcoholic. As to conditions: abstinent chronic alcoholics, after 1-2 months of abstinence; control group given vitamin B6; cited from earlier work.
Series [8] has as its system ADHD/ADD adult patients. The series can be described thus: TOVA (Test of Variables of Attention) in ADHD/ADD adult patients (Example 2). The format is in vivo, human. The conditions noted are these: n = 12; Bonferroni adjustment; NS, p 0.258. The protocol:
as §1, §2, §3
The TOVA is a computerized test developed to assess attention and impulsivity in normal and clinical populations. Main outcome measures for the TOVA are the Omission Standard Score (SS; inattention measure) the Commission Standard Score (SS; measure of impulse control), the Response Time (RT) SS, the Variability in RT SS, and overall ADHD SS (a composite score of the previous submeasures).
as §4

`Cc1ncc(CO)c(CO)c1O.O=C1CC[C@@H](C(=O)O)N1` [Metadoxine, pyridoxine L-2-pyrrolidone-5-carboxylate]: the “cognitive functions in the ADHD adult population (Wechsler subtests overall)” value in series [1] is “confirmed the ability of Metadoxine to improve cognitive functions”. Besides, in series [2] (during chronic alcohol intake), the “increased production of fatty acid esters in the liver” value is listed as “inhibited”. Besides, in series [2], the “oxidative stress and glutathione depletion in hepatic tissues” value was “reduced oxidative stress and prevented glutathione depletion”. In series [3] (FIG. 1, immediate/slow release formulations, fasted healthy subjects), the “time to maximal concentration” value is listed as “about 0.5 hour”. The “dose-linearity for Cmax and AUC” value in series [3] (single administration, dose range 700 to 2100 mg, healthy Caucasian subjects) is reported as “dose-linearity was demonstrated”. The “level of GABA and acetylcholine” value in series [4] was “increased”. For the same compound, in series [5], the “safety for use by humans” value is “safe for use by humans”. Further, the “mean half life in human serum” value in series [6] (Lu Yuan et al.) was “about 0.8 hour”. The “half life in human serum” value in series [6] (oral and intravenous administration, no appreciable differences) is 40 to 60 min. For the same compound, the bioavailability in series [6] (oral) was 60-80%. Further, in series [7], the “recovery of short-term memory” value was “helps recovery of short-term memory”. In addition, the “ADHD Score, Mean Difference, comparison with (3) Metadoxine 1400 mg, other group not given” value in series [8] is “+3.687 NS”.
